Source: patent US20240261224A1, “FORMULATION OF A PAN-JAK INHIBITOR” (KINASET THERAPEUTICS, INC., priority 2022, published 2024)
Where “and” joins values, the source holds several entries; their conditions need not be identical. Equal entries are not always repeated. Where two headings read alike, the source gives them in different places.

Columns and labels:
[1] = APSD, MMAD, FPM and FPF determination (NGI, 90 L/min); assay type: physicochemical; conditions: for Fine particle mass (≤5 μm): in µg (unit assumed)
Experimental: Cup coating agent was prepared by mixing 150 mL of a mixture of Brij® 35, ethanol, and glycerol with 850 ml of ethanol.
The cup coating agent was prepared, and the NGI was assembled. The collection cups were then coated with cup coating agent and then proceeded to dry. A PALL® A/E 76 mm filter was placed into the back-up filter and attached to the NGI. Approximately 15 mL of diluent was added into the pre-separator insert. The flow rate was set to 90 L/min and the capsule was pierced. One dose was discharged into the NGI by initiating the time-controlled solenoid valve for 2.70 seconds. Sample diluent was added (10 mL for 0.2 mg and 2.0 mg doses and 20 mL for 4.0 mg doses), and the collection cups were agitated on the NGI Gentle Rocker for 10 minutes. The induction port was added 40 mL of sample diluent and was shaken for 1 minute. The pre-separator was added 50 mL of sample diluent and was shaken for 1 minute. The back-up filter was transferred to a crystallizing dish with 20 mL of sample diluent and was then sonicated for 5 minutes. The capsule from each determination was then transferred to a 20 mL volumetric flask and sample diluent was added. The suspension was then shaken and sonicated until fully dissolved. The resulting solution equilibrated under ambient conditions and was then made up to volume. Each Monodose RS01 was placed into an individual plastic bag and 20 mL of recovery solution was added. The bag was shaken by hand for 1 minute and filtered prior to HPLC analysis.

[2] = 13-week inhalation toxicology study, NHP model; assay type: in vivo; conditions: in vivo, inhaled or intranasal, NHP; for AUC(0-t): monkey, read-out: AUC0-24
Experimental: (§1) Lactose/MgSt-based formulations of Compound I were evaluated during a 13-week inhalation toxicology study in an NHP model, and the corresponding results are presented in Table 16 below. […] The NOAEL was assigned to the highest dose study (7.9 mg/kg/day).

[3] = system: NHP; assay: 13-week inhalation toxicology study, NHP model; assay type: in vivo
Experimental: as §1

[4] = system: induced sputum eosinophil count; assay: Phase 1 Part 3 induced sputum differential eosinophil count; assay type: in vivo, human; conditions: 4 mg BID
Excerpt: Day 10 sputum and serum inflammatory biomarkers are shown below in Table 29. Part 3 included an evaluation of sputum samples obtained by sputum induction in accordance with European Respiratory Society guidelines (Paggiaro, et al., Eur. Respir. J. 2002, 20: Suppl. 37, 3 s). Subjects were randomized into sputum-producer and non-sputum producer strata with a target minimum of approximately 50% of subjects able to provide an adequate sputum sample at screening. […] Differential cell counts (DCC) were performed on samples judged adequate per standard procedure and patients with evaluable baseline (screening) and Day 10 (or Day 11 if Day 10 was not adequate) post-treatment samples were considered for analyses that included individual and mean absolute and percentage differential eosinophil counts.
In the sputum producer stratum, 6 Compound I (active) subjects and 2 placebo subjects were identified as having adequate baseline and post-treatment sputum samples and the resultant data was used to determine change from baseline, mean change from baseline, and mean placebo-corrected change from baseline (Compound I vs placebo). […] At baseline, all subjects manifested a percent differential eosinophil count >3%, indicative of active eosinophilic inflammation. By Day 10, 66% ( 4/6) of active subjects had improved below 3% eosinophils, with 50% ( 3/6) below a more stringent threshold of 1.9% (Reddel et al., Am. J. Respir. Crit. Care Med. 2009, 180, 59).

[5] = 2.0 mg capsule, 12 months 30/65
[6] = 2.0 mg capsule, 18 months 30/65
[7] = 2.0 mg capsule, 24 months 30/65
[8] = 4.0 mg capsule, 12 months 30/65
[9] = Day 10, Mean of active subjects (n = 6)
[10] = Day 10, active (n = 6) vs placebo (n = 2)
[11] = Day 10, individual active subjects 13026, 13027, 13038, 13073, 13095, 13097 (c1-c6)
[12] = Mean of active subjects (n = 6)
[13] = individual active subjects 13026, 13027, 13038, 13073, 13095, 13097 (c1-c6)

SMILES: Cn1c(=O)n([C@H]2CCCN(C(=O)CC#N)C2)c2nc(-c3cnn4ccccc34)ccc21 [Compound I, (S)-3-(3-(1-methyl-2-oxo-5-(pyrazolo[1,5-a]pyridine-3-yl)-1H-imidazo[4,5-b]pyridine-3(2H)-yl)piperidin-1-yl)-3-oxopropanenitrile]
- MMAD ([1]; 2.0 mg and 4.0 mg formulations aerosolized, Tables 11 and 12): 1.8-2.0 μm
- FPF ([1]; 2.0 mg and 4.0 mg formulations, Tables 11 and 12, up to 24 months): 73-78%
- FPF % (FPM/Impactor dose) ([1]; 2.0 mg capsule, 1 month 30/65): 75.4%
- MMAD ([1]; 2.0 mg capsule, 1 month 30/65): 2.0 μm
- Fine particle mass (≤5 μm) ([1]; 2.0 mg capsule, 1 month 30/65): 1143.6
- FPF % (FPM/Impactor dose) ([1]; 2.0 mg capsule, 1 month 40/75): 75.9%
- MMAD ([1]; 2.0 mg capsule, 1 month 40/75): 1.9 μm
- Fine particle mass (≤5 μm) ([1]; 2.0 mg capsule, 1 month 40/75): 1046.6
- FPF % (FPM/Impactor dose) ([1]; 2.0 mg capsule, 3 months 30/65): 77.2%
- MMAD ([1]; 2.0 mg capsule, 3 months 30/65): 1.9 μm
- Fine particle mass (≤5 μm) ([1]; 2.0 mg capsule, 3 months 30/65): 1096.5
- FPF % (FPM/Impactor dose) ([1]; 2.0 mg capsule, 3 months 40/75): 77.2%
- MMAD ([1]; 2.0 mg capsule, 3 months 40/75): 1.8 μm
- Fine particle mass (≤5 μm) ([1]; 2.0 mg capsule, 3 months 40/75): 1090.9
- FPF % (FPM/Impactor dose) ([1]; 2.0 mg capsule, 6 months 30/65): 74.9%
- MMAD ([1]; 2.0 mg capsule, 6 months 30/65): 1.9 μm
- Fine particle mass (≤5 μm) ([1]; 2.0 mg capsule, 6 months 30/65): 1074.3
- FPF % (FPM/Impactor dose) ([1]; 2.0 mg capsule, 6 months 40/75): 74.7%
- MMAD ([1]; 2.0 mg capsule, 6 months 40/75): 1.9 μm
- Fine particle mass (≤5 μm) ([1]; 2.0 mg capsule, 6 months 40/75): 1069.6
- FPF % (FPM/Impactor dose) ([1]; 2.0 mg capsule, 9 months 30/65): 76.6%
- MMAD ([1]; 2.0 mg capsule, 9 months 30/65): 1.9 μm
- Fine particle mass (≤5 μm) ([1]; 2.0 mg capsule, 9 months 30/65): 1075.9
- FPF % (FPM/Impactor dose) [1, 5]: 77.3%
- MMAD [1, 5]: 1.9 μm
- Fine particle mass (≤5 μm) [1, 5]: 1098.4
- FPF % (FPM/Impactor dose) [1, 6]: 77.0%
- MMAD [1, 6]: 1.9 μm
- Fine particle mass (≤5 μm) [1, 6]: 1162.7
- FPF % (FPM/Impactor dose) [1, 7]: 78.0%
- MMAD [1, 7]: 2.0 μm
- Fine particle mass (≤5 μm) [1, 7]: 1083.1
- FPF % (FPM/Impactor dose) ([1]; 2.0 mg capsule, Release): 73.5%
- MMAD ([1]; 2.0 mg capsule, Release): 2.0 μm
- Fine particle mass (≤5 μm) ([1]; 2.0 mg capsule, Release): 1006.7
- FPF % (FPM/Impactor dose) ([1]; 4.0 mg capsule, 1 month 30/65): 75.1%
- MMAD ([1]; 4.0 mg capsule, 1 month 30/65): 1.8 μm
- Fine particle mass (≤5 μm) ([1]; 4.0 mg capsule, 1 month 30/65): 2181.6
- FPF % (FPM/Impactor dose) ([1]; 4.0 mg capsule, 1 month 40/75): 73.6%
- MMAD ([1]; 4.0 mg capsule, 1 month 40/75): 1.9 μm
- Fine particle mass (≤5 μm) ([1]; 4.0 mg capsule, 1 month 40/75): 2130.4
- FPF % (FPM/Impactor dose) ([1]; 4.0 mg capsule, 3 months 30/65): 75.4%
- MMAD ([1]; 4.0 mg capsule, 3 months 30/65): 1.8 μm
- Fine particle mass (≤5 μm) ([1]; 4.0 mg capsule, 3 months 30/65): 2167.8
- FPF % (FPM/Impactor dose) ([1]; 4.0 mg capsule, 3 months 40/75): 72.9%
- MMAD ([1]; 4.0 mg capsule, 3 months 40/75): 1.9 μm
- Fine particle mass (≤5 μm) ([1]; 4.0 mg capsule, 3 months 40/75): 2059.2
- FPF % (FPM/Impactor dose) ([1]; 4.0 mg capsule, 6 months 30/65): 73.6%
- MMAD ([1]; 4.0 mg capsule, 6 months 30/65): 1.9 μm
- Fine particle mass (≤5 μm) ([1]; 4.0 mg capsule, 6 months 30/65): 2098.3
- FPF % (FPM/Impactor dose) ([1]; 4.0 mg capsule, 6 months 40/75): 74%
- MMAD ([1]; 4.0 mg capsule, 6 months 40/75): 1.8 μm
- Fine particle mass (≤5 μm) ([1]; 4.0 mg capsule, 6 months 40/75): 2090
- FPF % (FPM/Impactor dose) ([1]; 4.0 mg capsule, 9 months 30/65): 74%
- MMAD ([1]; 4.0 mg capsule, 9 months 30/65): 1.8 μm
- Fine particle mass (≤5 μm) ([1]; 4.0 mg capsule, 9 months 30/65): 2116.2
- FPF % (FPM/Impactor dose) [1, 8]: 76.5%
- MMAD [1, 8]: 1.9 μm
- Fine particle mass (≤5 μm) [1, 8]: 2182.2
- FPF % (FPM/Impactor dose) ([1]; 4.0 mg capsule, 18 months): 75.4%
- MMAD ([1]; 4.0 mg capsule, 18 months): 1.9 μm
- Fine particle mass (≤5 μm) ([1]; 4.0 mg capsule, 18 months): 2254.8
- FPF % (FPM/Impactor dose) ([1]; 4.0 mg capsule, 24 months): 76.7%
- MMAD ([1]; 4.0 mg capsule, 24 months): 1.9 μm
- Fine particle mass (≤5 μm) ([1]; 4.0 mg capsule, 24 months): 2201.8
- FPF % (FPM/Impactor dose) ([1]; 4.0 mg capsule, Release): 75.3%
- MMAD ([1]; 4.0 mg capsule, Release): 1.9 μm
- Fine particle mass (≤5 μm) ([1]; 4.0 mg capsule, Release): 2157.0
- AUC(0-t) ([2]; 0.9 mg/kg/day, inhaled 0.9 mg/kg/day, Day 1): 203 ng·h/mL
- AUC(0-t) ([2]; 0.9 mg/kg/day, inhaled 0.9 mg/kg/day, Week 13): 167 ng·h/mL
- AUC(0-t) ([2]; 2.7 mg/kg/day, inhaled 2.7 mg/kg/day, Day 1): 408 ng·h/mL
- AUC(0-t) ([2]; 2.7 mg/kg/day, inhaled 2.7 mg/kg/day, Week 13): 361 ng·h/mL
- AUC(0-t) ([2]; 8 mg/kg/day, inhaled 8.0 mg/kg/day, Day 1): 903 ng·h/mL
- AUC(0-t) ([2]; 8 mg/kg/day, inhaled 8.0 mg/kg/day, Week 13): 1160 ng·h/mL
- NOAEL at 13 weeks ([2]; non-human primate (NHP), 13-week inhalation, highest dose): 7.9 mg/kg/day
- Treatment-related effects on clinical signs, bodyweight, food consumption, ophthalmoscopy, blood chemistry, urinalysis or macroscopic pathology ([3]; NHP, 13-week inhalation): No treatment-related effects
- MMAD ([3]; target delivered dose 0.9 mg/kg/day (low dose)): 1.9 μm
- MMAD ([3]; target delivered dose 2.7 mg/kg/day (mid dose)): 2.3 μm
- MMAD ([3]; target delivered dose 8.0 mg/kg/day (high dose)): 2.7 μm
- Induced sputum % differential eosinophil count, % Change from Screening [4, 9]: −65%
- Induced sputum % differential eosinophil count, Change from Screening [4, 9]: −6.8%
- Induced sputum absolute differential eosinophil count, % Change from Screening [4, 9]: −79%
- Induced sputum absolute differential eosinophil count, Change from Screening [4, 9]: −0.15 10^6/g
- Induced sputum % differential eosinophil count, Mean placebo-corrected change [4, 10]: −21.3%
- Induced sputum absolute differential eosinophil count, Mean placebo-corrected change [4, 10]: −0.22 10^6/g
- Induced sputum % differential eosinophil count, % Change from Screening [4, 11]: −54% and −48% and −81% and −64% and −75% and −94%
- Induced sputum % differential eosinophil count, Change from Screening [4, 11]: −8.3% and −2.3% and −4.3% and −18.8% and −3.0% and −4.5%
- Induced sputum % differential eosinophil count, Reduced to normal level (<3%) [4, 11]: No (2×) and Yes (4×)
- Induced sputum absolute differential eosinophil count, % Change from Screening [4, 11]: −70% and −75% (2×) and −89% and −88% and −100%
- Induced sputum absolute differential eosinophil count, Change from Screening [4, 11]: −0.16 10^6/g and −0.09 10^6/g and −0.08 10^6/g and −0.33 10^6/g and −0.07 10^6/g and −0.17 10^6/g
- Active subjects below more stringent threshold of 1.9% eosinophils (sputum) ([4]; by Day 10 (3/6)): 50%
- Active subjects improved below 3% eosinophils (sputum percent differential count) ([4]; by Day 10 (4/6)): 66%
- Induced sputum % differential eosinophil count, Day 10 level [4, 12]: 3.7%
- Induced sputum absolute differential eosinophil count, Day 10 level [4, 12]: 0.04 10^6/g
- Induced sputum % differential eosinophil count, Day 10 level [4, 13]: 7.0% and 2.5% and 1.0% (2×) and 10.5% and 0.3%
- Induced sputum absolute differential eosinophil count, Day 10 level [4, 13]: 0.07 10^6/g and 0.03 10^6/g and 0.01 10^6/g (2×) and 0.12 10^6/g and 0.001 10^6/g
